Source: US11957671B2, “Benzodioxane modulators of leukotriene A4 hydrolase (LTA4H) for prevention and treatment of aging-associated diseases” (Alkahest, Inc., priority 2021, dated 2024)

Test system: synthesis of LTB4 in human whole blood
Assay: human whole blood (HWB) assay, LTB4 production inhibition
Format: cell-based
Conditions: calcimycin 20 μM
Protocol: The compounds of the invention are additionally tested in a human whole blood (HWB) assay to determine their ability to inhibit the synthesis of LTB4 in a cellular system. Compounds are combined with heparinized human whole blood and incubated for 15 minutes at 37° C. Calcimycin (20 μM final, prepared in phosphate-buffered saline, pH 7.4) is then added and the mixture is incubated for another 30 minutes at 37° C. The samples are centrifuged for 5 min at low speed (1500×g) and the plasma layer is removed. Plasma LTB4 concentrations are then measured using an antibody-based homogenous time-resolved fluorescence method (CisBio, Bedford, Mass.). In general, the preferred potency range (IC50) of compounds in the HWB assay is between 10 nM to 10 μM, the more preferred potency range is 10 nM to 1 μM, and the most preferred potency range is 10 nM to 100 nM.

Work on COC1CCN(Cc2ccc([C@H]3COc4cccnc4O3)cc2)C1 (stereo partly drawn) [Example 168, (3S)-3-{4-[(3-methoxypyrrolidin-1-yl)methyl]phenyl}-2,3-dihydro[1,4]dioxino[2,3-b]pyridine] yielded an IC50 of 0.039 µM.
In the case of O=C(NCCO)C1CCN(Cc2ccc(C3COc4ccccc4O3)cc2)CC1 (racemic) [Example 52, 1-[4-(2,3-dihydro-1,4-benzodioxin-2-yl)benzyl]-N-(2-hydroxyethyl)piperidine-4-carboxamide], the IC50 is reported as 0.145 µM.
Compound NC(=O)CN1CCCC12CCN(Cc1ccc([C@H]3COc4ccccc4O3)cc1)C2 (stereo partly drawn) [Example 123, 2-(7-{4-[(2S)-2,3-dihydro-1,4-benzodioxin-2-yl]benzyl}-1,7-diazaspiro[4.4]non-1-yl)acetamide] has an IC50 of 0.312 µM.
With c1cnc2c(c1)OC[C@H](c1ccc(CN3CCCCCC3)cc1)O2 [Example 139, (3S)-3-[4-(azepan-1-ylmethyl)phenyl]-2,3-dihydro[1,4]dioxino[2,3-b]pyridine] the IC50 was 0.0132 µM.
With NC(=O)NC1CCN(Cc2ccc(C3COc4ccccc4O3)cc2)CC1 (racemic) [Example 53, 1-{1-[4-(2,3-dihydro-1,4-benzodioxin-2-yl)benzyl]piperidin-4-yl}urea] the IC50 was 0.155 µM.
CC1CCN(Cc2ccc([C@H]3COc4cccnc4O3)cc2)CC1 [Example 137, (3S)-3-{4-[(4-methylpiperidin-1-yl)methyl]phenyl}-2,3-dihydro[1,4]dioxino[2,3-b]pyridine] gave an IC50 of 0.0276 µM.
CC(c1ccc([C@H]2COc3ccccc3O2)cc1)N1CCC(C(=O)O)CC1 (stereo partly drawn) [Example 227, 1-(1-{4-[(2S)-2,3-dihydro-1,4-benzodioxin-2-yl]phenyl}ethyl)piperidine-4-carboxylic acid] showed an IC50 of 0.307 µM.
O[C@H]1CCN(Cc2ccc(C3COc4ccccc4O3)cc2)C1 (stereo partly drawn) [Example 9, (3S)-1-[4-(2,3-dihydro-1,4-benzodioxin-2-yl)benzyl]pyrrolidin-3-ol] gave an IC50 of 0.285 µM.
In the case of CC(=O)N(C)C1CCN(Cc2ccc([C@H]3COc4ccccc4O3)cc2)C1 (stereo partly drawn) [Example 83, N-(1-{4-[(2S)-2,3-dihydro-1,4-benzodioxin-2-yl]benzyl}pyrrolidin-3-yl)-N-methylacetamide], the IC50 is reported as 0.0335 µM.
With CN(Cc1ccc([C@H]2COc3cccnc3O2)cc1)C1CCCC1 [Example 142, N-{4-[(3S)-2,3-dihydro[1,4]dioxino[2,3-b]pyridin-3-yl]benzyl}-N-methylcyclopentanamine] the IC50 was 0.0244 µM.
CC(=O)N1CCN(Cc2ccc([C@H]3COc4cccnc4O3)cc2)CC1 [Example 185, 1-(4-{4-[(3S)-2,3-dihydro[1,4]dioxino[2,3-b]pyridin-3-yl]benzyl}piperazin-1-yl)ethanone] was tested, and the IC50 was 0.0923 µM.
For c1cnc2c(c1)OC[C@H](c1ccc(CN3CCCC3)cc1)O2 [Example 126, (3S)-3-[4-(pyrrolidin-1-ylmethyl)phenyl]-2,3-dihydro[1,4]dioxino[2,3-b]pyridine], the IC50 was 0.0323 µM.
With O=C1NCCCC12CCN(Cc1ccc([C@H]3COc4ccccc4O3)cc1)CC2 [Example 116, 9-{4-[(2S)-2,3-dihydro-1,4-benzodioxin-2-yl]benzyl}-2,9-diazaspiro[5.5]undecan-1-one] the IC50 was 0.31 µM.
CC1CCCCN1Cc1ccc([C@H]2COc3ccccc3O2)cc1 (stereo partly drawn) [Example 68, 1-{4-[(2S)-2,3-dihydro-1,4-benzodioxin-2-yl]benzyl}-2-methylpiperidine] gave an IC50 of 0.0807 µM.
With CNC(=O)C1CCN(Cc2ccc(C3COc4ccccc4O3)cc2)CC1 (racemic) [Example 25, 1-[4-(2,3-dihydro-1,4-benzodioxin-2-yl)benzyl]-N-methylpiperidine-4-carboxamide] the IC50 was 0.294 µM.
OC[C@H]1CCCC[C@H]1NCc1ccc([C@H]2COc3ccccc3O2)cc1 [Example 87, [(1S,2R)-2-({4-[(2S)-2,3-dihydro-1,4-benzodioxin-2-yl]benzyl)amino)cyclohexyl] methanol] showed an IC50 of 0.268 µM.
Work on COC1CCN(Cc2ccc([C@H]3COc4ccccc4O3)cc2)CC1 [Example 98, 1-{4-[(2S)-2,3-dihydro-1,4-benzodioxin-2-yl]benzyl}-4-methoxypiperidine] yielded an IC50 of 0.18 µM.
In the case of COC1CCCN(Cc2ccc([C@H]3COc4cccnc4O3)cc2)C1 (stereo partly drawn) [Example 158, (3S)-3-{4-[(3-methoxypiperidin-1-yl)methyl]phenyl}-2,3-dihydro[1,4]dioxino[2,3-b]pyridine], the IC50 is reported as 0.0275 µM.
c1cnc2c(c1)OCC(c1ccc(CN3CCOCC3)cc1)O2 (racemic) [Example 18, 3-[4-(morpholin-4-ylmethyl)phenyl]-2,3-dihydro[1,4]dioxino[2,3-b]pyridine] showed an IC50 of 0.176 µM.
CN1CCC2(CCN(Cc3ccc([C@H]4COc5ccccc5O4)cc3)CC2)C1=O [Example 121, 8-{4-[(2S)-2,3-dihydro-1,4-benzodioxin-2-yl]benzyl}-2-methyl-2,8-diazaspiro[4.5]decan-1-one] gave an IC50 of 0.159 µM.
c1ccc2c(c1)OCC(c1ccc(CN3CCCC3)cc1)O2 (stereo not shown) [Example 200, 1-[4-(2,3-dihydro-1,4-benzodioxin-2-yl)benzyl]pyrrolidine] showed an IC50 of 0.083 µM.
In the case of CN(Cc1ccc([C@H]2COc3ccccc3O2)cc1)C1CCCCC1 [Example 67, N-{4-[(2S)-2,3-dihydro-1,4-benzodioxin-2-yl]benzyl}-N-methylcyclohexanamine], the IC50 is reported as 0.346 µM.
Compound O=C(O)[C@@H]1CCN(Cc2ccc([C@H]3COc4ccccc4O3)cc2)C1 [Example 214, (3R)-1-{4-[(2S)-2,3-dihydro-1,4-benzodioxin-2-yl]benzyl}pyrrolidine-3-carboxylic acid] has an IC50 of 0.169 µM.
CCCCN(Cc1ccc(C(=O)O)cc1)Cc1ccc([C@H]2COc3ccccc3O2)cc1 [Example 237] showed an IC50 of 0.0945 µM.
In the case of c1cnc2c(c1)OC[C@H](c1ccc(CN3[C@H]4CC[C@@H]3CC4)cc1)O2 [Example 145, (3S)-3-{4-[(1s,4s)-7-azabicyclo[2.2.1]hept-7-ylmethyl]phenyl}-2,3-dihydro[1,4]dioxino[2,3-b]pyridine], the IC50 is reported as 0.0284 µM.
For O=C(O)CCC1CCN(Cc2ccc([C@H]3COc4ccccc4O3)cc2)CC1 [Example 134, 3-(1-{4-[(2S)-2,3-dihydro-1,4-benzodioxin-2-yl]benzyl}piperidin-4-yl)propanoic acid], the IC50 was 0.0946 µM.
c1ccc2c(c1)OC[C@H](c1ccc(CN3CCC[C@H]4CCCC[C@@H]43)cc1)O2 [Example 85, (4aR,8aS)-1-{4-[(2S)-2,3-dihydro-1,4-benzodioxin-2-yl]benzyl}decahydroquinoline] gave an IC50 of 0.305 µM.
O=C1CCCN1CC1CCCN(Cc2ccc(C3COc4ccccc4O3)cc2)C1 (racemic) [Example 10, 1-({1-[4-(2,3-dihydro-1,4-benzodioxin-2-yl)benzyl]piperidin-3-yl}methyl)pyrrolidin-2-one] gave an IC50 of 0.352 µM.
Work on CC(C)(CN1CCCC1)NCc1ccc([C@H]2COc3cccnc3O2)cc1 [Example 157, N-{4-[(3S)-2,3-dihydro[1,4]dioxino[2,3-b]pyridin-3-yl]benzyl}-2-methyl-1-(pyrrolidin-1-yl)propan-2-amine] yielded an IC50 of 0.035 µM.
In the case of NC(=O)NC1CCN(Cc2ccc([C@H]3COc4cccnc4O3)cc2)CC1 [Example 187, 1-(1-{4-[(3S)-2,3-dihydro[1,4]dioxino[2,3-b]pyridin-3-yl]benzyl}piperidin-4-yl)urea], the IC50 is reported as 0.177 µM.
OCC1CCCN(Cc2ccc([C@H]3COc4ccccc4O3)cc2)C1 (stereo partly drawn) [Example 69, (1-{4-[(2S)-2,3-dihydro-1,4-benzodioxin-2-yl]benzyl}piperidin-3-yl)methanol] showed an IC50 of 0.165 µM.
CC(=O)N1CCCC12CCN(Cc1ccc([C@H]3COc4ccccc4O3)cc1)C2 (stereo partly drawn) [Example 118, 1-(7-{4-[(2S)-2,3-dihydro-1,4-benzodioxin-2-yl]benzyl}-1,7-diazaspiro[4.4]non-1-yl)ethanone] was tested, and the IC50 was 0.256 µM.
With O=C(O)C1CCN(Cc2ccc([C@H]3COc4ccccc4O3)cc2)C1 (stereo partly drawn) [Example 61, 1-{4-[(2S)-2,3-dihydro-1,4-benzodioxin-2-yl]benzyl}pyrrolidine-3-carboxylic acid] the IC50 was 0.25 µM.
c1cnc2c(c1)OC[C@H](c1ccc(CN3CCn4cnnc4C3)cc1)O2 [Example 156, (3S)-3-[4-(5,6-dihydro[1,2,4]triazolo[4,3-a]pyrazin-7(8H)-ylmethyl)phenyl]-2,3-dihydro[1,4]dioxino[2,3-b]pyridine] showed an IC50 of 0.159 µM.
COCC(=O)NC1CCN(Cc2ccc([C@H]3COc4ccccc4O3)cc2)CC1 [Example 219, N-(1-{4-[(2S)-2,3-dihydro-1,4-benzodioxin-2-yl]benzyl}piperidin-4-yl)-2-methoxyacetamide] gave an IC50 of 0.149 µM.
With CC(=O)NC1CCN(Cc2ccc([C@H]3COc4cccnc4O3)cc2)CC1 [Example 160, N-(1-{4-[(3S)-2,3-dihydro[1,4]dioxino[2,3-b]pyridin-3-yl)benzyl}piperidin-4-yl)acetamide] the IC50 was 0.028 µM.
CC(C)(C(=O)O)C1CCN(Cc2ccc([C@H]3COc4ccccc4O3)cc2)CC1 [Example 229, 2-(1-{4-[(2S)-2,3-dihydro-1,4-benzodioxin-2-yl]benzyl}piperidin-4-yl)-2-methylpropanoic acid] showed an IC50 of 0.29 µM.
CC(=O)N1CC[C@@H](NCc2ccc([C@H]3COc4ccccc4O3)cc2)C1 [Example 64, 1-[(3R)-3-({4-[(2S)-2,3-dihydro-1,4-benzodioxin-2-yl]benzyl}amino)pyrrolidin-1-yl]ethanone] gave an IC50 of 0.158 µM.
OC1CCN(Cc2ccc([C@H]3COc4cccnc4O3)cc2)CC1 [Example 186, 1-{4-[(3S)-2,3-dihydro[1,4]dioxino[2,3-b]pyridin-3-yl]benzyl}piperidin-4-ol] showed an IC50 of 0.0365 µM.
O=C(C1CCN(Cc2ccc(C3COc4ccccc4O3)cc2)CC1)N1CCOCC1 (racemic) [Example 37, {1-[4-(2,3-dihydro-1,4-benzodioxin-2-yl)benzyl]piperidin-4-yl}(morpholin-4-yl)methanone] was tested, and the IC50 was 0.324 µM.
